{
  "source": "patent US20070060604A1",
  "about": "“Antibiotic pharmaceutical composition with lysergol as bio-enhancer and method of treatment” (COUNCIL OF SCIENTIFIC AND INDUSTRIAL RESEARCH, priority 2002, published 2007)",
  "key": {"[1]": {"test_system": "Mycobacterium smegmatis (ATCC 14468)", "test": "Broth assay of killing action of antibiotic alone and with lysergol (viable cell count)", "details": "M. smegmatis; antibiotic 0.2 μg/ml"}, "[2]": {"test_system": "Bacillus subtilis (ATCC 6051)", "test": "Broth assay of killing action of antibiotic alone and with lysergol (viable cell count)", "details": "B. subtilis; antibiotic 0.4 μg/ml"}, "[3]": {"test_system": "Escherichia coli (ATCC 10536)", "test": "Broth assay of killing action of antibiotic alone and with lysergol (viable cell count)", "details": "E. coli"}, "bacteria": {"test_system": "bacteria", "test": "Growth of bacteria in presence of lysergol alone", "format": "cell-based", "details": "bacteria grown in presence of lysergol alone", "excerpt": "1. […] Process for the Isolation of Lysergol"}},
  "data": [
    {"smiles": "CO[C@H]1/C=C/O[C@@]2(C)Oc3c(C)c(O)c4c(O)c(c(/C=N/N5CCN(C)CC5)c(O)c4c3C2=O)NC(=O)/C(C)=C\\C=C\\[C@H](C)[C@H](O)[C@@H](C)[C@@H](O)[C@@H](C)[C@H](OC(C)=O)[C@@H]1C", "note": "[Rifampicin]", "values": [
      {"measurement": "Survival fraction of viable cells upon treatment with antibiotic alone", "setting": "[1]", "value": "0.45-0.54"},
      {"measurement": "Survival fraction of viable cells upon treatment with antibiotic alone", "setting": "[2]", "value": "0.085-0.096"},
      {"measurement": "Survival fraction of viable cells upon treatment with antibiotic alone", "setting": "[3]; antibiotic 10 μg/ml", "value": "0.35-0.45"},
      {"measurement": "Survival fraction of viable cells upon treatment with antibiotic alone", "setting": "[3]; antibiotic 20 μg/ml", "value": "0.25-0.30"}
    ]},
    {"smiles": "CN1C[C@H](CO)C=C2c3cccc4[nH]cc(c34)C[C@H]21", "note": "[lysergol, 9,10-Didehydro-6-methylergoline-8-[…]-methanol]", "values": [
      {"measurement": "Killing of bacteria by the compound as such", "setting": "bacteria", "value": "no significant killing"}
    ]}
  ]
}
